In patent publication US20170190671A1, “BIS(ARYL)CATECHOL DERIVATIVES AS HERBICIDES” (E I DU PONT DE NEMOURS AND COMPANY, priority 2014, published 2017):

Experiments:
Assay in all cases: Test C preemergence
Assay type in all cases: in vivo
[1] = tested on: Italian ryegrass (Lolium multiflorum); conditions: Lolium multiflorum, pre-emergence, 336 h, scale 0 to 100, read-out: Plant response rating, Ryegrass, Italian
In short: (§1)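 Visual ratings (0 none to 100 complete control) were made 13 to 15 days after treatment, relative to controls. Test chemicals, formulated in a non-phytotoxic solvent mixture with surfactant, were applied in the greenhouse preemergence to seeded loam-sand soil or postemergence to plants 2 to 18 cm tall.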

[2] = tested on: waterhemp (common waterhemp, Amaranthus rudis); conditions: Amaranthus tuberculatus, pre-emergence, scale 0 to 100, read-out: Plant response rating, Waterhemp
In short: as §1

[3] = tested on: blackgrass (Alopecurus myosuroides); conditions: Alopecurus myosuroides, pre-emergence, 336 h, scale 0 to 100, read-out: Plant response rating, Blackgrass
In short: as §1

[4] = tested on: ragweed (common ragweed, Ambrosia elatior); conditions: Ambrosia artemisiifolia, pre-emergence, 336 h, scale 0 to 100, read-out: Plant response rating, Ragweed
In short: as §1

[5] = tested on: yellow nutsedge (Cyperus esculentus); conditions: Cyperus, pre-emergence, 336 h, scale 0 to 100, read-out: Plant response rating, Nutsedge, Yellow
In short: as §1

corn (Zea mays) = conditions: Zea mays, pre-emergence, 336 h, scale 0 to 100
In short: as §1

[6] = tested on: morningglory (Ipomoea coccinea); conditions: Ipomoea, pre-emergence, 336 h, scale 0 to 100, read-out: Plant response rating, Morningglory
In short: as §1

[7] = tested on: large (Lg) crabgrass (Digitaria sanguinalis); conditions: Digitaria sanguinalis, pre-emergence, 336 h, scale 0 to 100, read-out: Plant response rating, Crabgrass, Large
In short: as §1

soybean (Glycine max) = conditions: Glycine max, pre-emergence, scale 0 to 100, read-out: Plant response rating, Soybean
In short: as §1

[8] = tested on: oilseed rape (Brassica napus); conditions: Brassica napus, pre-emergence, scale 0 to 100, read-out: Plant response rating, Oilseed Rape
In short: as §1

[9] = tested on: johnsongrass (Sorghum halepense); conditions: Sorghum halepense, pre-emergence, 336 h, preemergence, scale 0 to 100, read-out: Plant response rating, Johnsongrass
In short: as §1

With `Fc1cnc(Oc2c(F)ccc(F)c2Oc2ncc(F)cn2)nc1` [Compound 29, 2,2′-[(3,6-difluoro-1,2-phenylene)bis(oxy)]bis[5-fluoropyrimidine]] the pest or weed control at 31 g/ha ([1]; 31 g ai/ha, preemergence) was 15%, the pest or weed control at 62 g/ha ([1]; 62 g ai/ha, preemergence) was 50% and the pest or weed control at 125 g/ha ([1]; 125 g ai/ha, preemergence) was 60%. The pest or weed control at 16 g/ha ([1]; Preemergence, 16 g ai/ha) was 30%, the pest or weed control at 31 g/ha ([2]; 31 g ai/ha, preemergence) was 100% and the pest or weed control at 62 g/ha ([2]; 62 g ai/ha, preemergence) was 100%. The pest or weed control at 125 g/ha ([2]; 125 g ai/ha, preemergence) was 100%, the pest or weed control at 16 g/ha ([2]; Preemergence, 16 g ai/ha) was 100% and the pest or weed control at 31 g/ha ([3]; 31 g ai/ha, preemergence) was 90%. The pest or weed control at 62 g/ha ([3]; 62 g ai/ha, preemergence) was 90%, the pest or weed control at 125 g/ha ([3]; 125 g ai/ha, preemergence) was 90% and the pest or weed control at 16 g/ha ([3]; Preemergence, 16 g ai/ha) was 60%. It also gave a pest or weed control at 31 g/ha ([4]; 31 g ai/ha, preemergence) of 85%, a pest or weed control at 62 g/ha ([4]; 62 g ai/ha, preemergence) of 85% and a pest or weed control at 125 g/ha ([4]; 125 g ai/ha, preemergence) of 95%. The pest or weed control at 16 g/ha ([4]; Preemergence, 16 g ai/ha) was 90%, the pest or weed control at 31 g/ha ([5]; 31 g ai/ha, preemergence) was 0% and the pest or weed control at 62 g/ha ([5]; 62 g ai/ha, preemergence) was 0%. The pest or weed control at 125 g/ha ([5]; 125 g ai/ha, preemergence) was 40%, the pest or weed control at 16 g/ha ([5]; Preemergence, 16 g ai/ha) was 0% and the Corn plant response rating (crop injury, 0 = no effect, 100 = complete kill) at 31 g/ha (corn (Zea mays); 31 g ai/ha, preemergence) was 15%. It also gave a Corn plant response rating (crop injury, 0 = no effect, 100 = complete kill) at 62 g/ha (corn (Zea mays); 62 g ai/ha, preemergence) of 25%, a Corn plant response rating (crop injury, 0 = no effect, 100 = complete kill) at 125 g/ha (corn (Zea mays); 125 g ai/ha, preemergence) of 65% and a Corn plant response rating (crop injury, 0 = no effect, 100 = complete kill) at 16 g/ha (corn (Zea mays); Preemergence, 16 g ai/ha) of 0%. It also gave a pest or weed control at 31 g/ha ([6]; 31 g ai/ha, preemergence) of 75%, a pest or weed control at 62 g/ha ([6]; 62 g ai/ha, preemergence) of 80% and a pest or weed control at 125 g/ha ([6]; 125 g ai/ha, preemergence) of 85%. For the same compound, the pest or weed control at 16 g/ha ([6]; Preemergence, 16 g ai/ha) was 55%, the pest or weed control at 31 g/ha ([7]; 31 g ai/ha, preemergence) was 95% and the pest or weed control at 62 g/ha ([7]; 62 g ai/ha, preemergence) was 95%. The pest or weed control at 125 g/ha ([7]; 125 g ai/ha, preemergence) was 98%, the pest or weed control at 16 g/ha ([7]; Preemergence, 16 g ai/ha) was 95% and the plant injury at 31 g/ha (soybean (Glycine max); 31 g ai/ha, preemergence) was 85%. The plant injury at 62 g/ha (soybean (Glycine max); 62 g ai/ha, preemergence) was 90%, the plant injury at 125 g/ha (soybean (Glycine max); 125 g ai/ha, preemergence) was 90% and the plant injury at 16 g/ha (soybean (Glycine max); Preemergence, 16 g ai/ha) was 70%. The plant injury at 31 g/ha ([8]; 31 g ai/ha, preemergence) was 98%, the plant injury at 62 g/ha ([8]; 62 g ai/ha, preemergence) was 95% and the plant injury at 125 g/ha ([8]; 125 g ai/ha, preemergence) was 95%. For the same compound, the plant injury at 16 g/ha ([8]; Preemergence, 16 g ai/ha) was 95%, the pest or weed control at 31 g/ha ([9]; 31 g ai/ha) was 70% and the pest or weed control at 62 g/ha ([9]; 62 g ai/ha) was 80%. For the same compound, the pest or weed control at 125 g/ha ([9]; 125 g ai/ha) was 85%.
